The subject of the experiment is Type-1 diabetic rats. The experiment in a line: Chronic administration, plasma glucose level in Type-1 diabetic rats. The experiment is classed as in vivo. The settings on record: for PGL: INS 1 U/kg i.p. once daily; for % PGL Reduction: INS 1 U/kg i.p., vs respective vehicle control group. On the procedure:
Experimental studies were performed in animal models (rats) to determine anti-diabetic potential if any (Type 1 and Type 2) of the novel fraction isolated from fenugreek seeds (>70% furostanolic saponins with approximately 30% protodioscin as one of the major fractions).

Consider Insulin, for which the PGL amounted to 527.98 ± 50.31 mg/dL (0 d), 218.33 ± 16.87 mg/dL (7 d) and 260.65 ± 22.96 mg/dL (14 d). Further, the “% PGL Reduction” value (7 d) is given as “(56.3%)”; the “% PGL Reduction” value (14 d) is listed as “(48.2%)”; the “% PGL Reduction” value (14 d, listed as insulin) is given as 48.2%.

For the origin of these results see patent US20120071427A1, “NOVEL ANTIDIABETIC FUROSTANOLIC SAPONIN RICH (FSR) FRACTION FROM FENUGREEK SEEDS” (priority 2009, published 2012).
